From patent EP0420552A2, “New antifungal antibiotic, and the production and uses of same” (ZAIDAN HOJIN BISEIBUTSU KAGAKU KENKYU KAI, priority 1989, dated 1991) come the findings set out here.

Converted amounts (≈) assume the structure as drawn.

One data set concerns Candida Yu-1200. The data set can be described thus: MIC by standard serial dilution method on nutrient agar. Type of data set: cell-based. The conditions noted are these: YU1200, nutrient agar medium containing 1% glucose (pH 7.0), 27°C, 42 hours, read-out: Minimum inhibitory concentrations. The method, then:
(§1) The minimum inhibitory concentrations (MIC., mcg/ml) of dexylosylbenanomicin A against a variety of fungi were determined by a standard serial dilution method on a nutrient agar medium containing 1% glucose (pH 7.0) after incubation at 27°C for 42 hours and are shown in Table 1 below.

For data set [1], the system named is Saccharomyces cerivisiae F-7. The description is as above. It counts as cell-based. The conditions noted are these: F7, nutrient agar medium containing 1% glucose (pH 7.0), 27°C, 42 hours, read-out: Minimum inhibitory concentrations. The method, then: as §1
The test system of data set [2] is Cryptococcus neoformans F-10. The description is as above. Type of data set: cell-based. The conditions noted are these: F10, nutrient agar medium containing 1% glucose (pH 7.0), 27°C, 42 hours, read-out: Minimum inhibitory concentrations. The procedure: as §1
For a further data set, the system named is Candida albicans 3147. The data set is described as above. It counts as cell-based. Particulars: nutrient agar medium containing 1% glucose (pH 7.0), 27°C, 42 hours, read-out: Minimum inhibitory concentrations. The method, then: as §1
A further data set has as its system Candida krusei F-5. Described as above. The conditions noted are these: Pichia kudriavzevii, F5, nutrient agar medium containing 1% glucose (pH 7.0), 27°C, 42 hours, read-out: Minimum inhibitory concentrations. It counts as cell-based. The method, then: as §1
The subject of the next data set is Pellicularia sasakii. Described as above. It counts as cell-based. Particulars: nutrient agar medium containing 1% glucose (pH 7.0), 27°C, 42 hours, read-out: Minimum inhibitory concentrations. The method, then: as §1
Data set [3] concerns Candida pseudotropicalis F-2. The data set is described as above. The conditions noted are these: Kluyveromyces marxianus, F2, nutrient agar medium containing 1% glucose (pH 7.0), 27°C, 42 hours, read-out: Minimum inhibitory concentrations. Type of data set: cell-based. The procedure:
as §1

For a further data set, the system named is Aspergillus niger F-16. The data set is described as above. Particulars: F16, nutrient agar medium containing 1% glucose (pH 7.0), 27°C, 42 hours, read-out: Minimum inhibitory concentrations. Type of data set: cell-based. The method, then: as §1
For data set [4], the system named is Trichophyton asteroides 429. The description is as above. It counts as cell-based. Particulars: nutrient agar medium containing 1% glucose (pH 7.0), 27°C, 42 hours, read-out: Minimum inhibitory concentrations. The method, then: as §1
The subject of the next data set is Candida tropicalis F-1. The description is as above. The conditions noted are these: F1, nutrient agar medium containing 1% glucose (pH 7.0), 27°C, 42 hours, read-out: Minimum inhibitory concentrations. Type of data set: cell-based. The procedure: as §1
The subject of data set [5] is Trichophyton mentagrophytes (883). Described as above. It counts as cell-based. The conditions noted are these: nutrient agar medium containing 1% glucose (pH 7.0), 27°C, 42 hours, read-out: Minimum inhibitory concentrations. The method, then: as §1
Data set [6] can be described thus: Acute toxicity in mice upon intravenous administration. Type of data set: in vivo. The conditions noted are these: ICR mice (female, 4-week old, body weight of 19 to 21 g). The method, then:
Dexylosylbenanomicin A is of low toxicity to mammals, as it was shown that for estimation of acute toxicity in mice upon intravenous administration, dexylosylbenanomicin A was administered via the intravenous route to ICR mice (female, 4-week old, body weight of 19 to 21 g), the mice tolerated a dosage of 300 mg/kg of this new antibiotic.

A short description of data set [7]: Solubility in organic solvents.
A further data set has as its system Xanthomonas citri. Nature of the data set: MIC by standard serial dilution method on nutrient agar. Particulars: 42 h, pH 7, read-out: Minimum inhibitory concentrations. Type of data set: cell-based.
The next data set concerns Xanthomonas oryzae. Nature of the data set: microbe, parasite or virus in culture. It counts as cell-based. The conditions noted are these: 42 h, pH 7, read-out: Minimum inhibitory concentrations.
The next data set relates to Cochliobolus miyabeanus. The data set can be described thus: MIC by standard serial dilution method on nutrient agar. It counts as cell-based. Particulars: Bipolaris oryzae, 42 h, pH 7, read-out: Minimum inhibitory concentrations.
The next data set deals with Pyricularia oryzae. Nature of the data set: microbe, parasite or virus in culture. Type of data set: cell-based. Particulars: 42 h, pH 7, read-out: Minimum inhibitory concentrations.

Take `COc1cc(O)c2c(c1)C(=O)c1c(cc3c(c1O)-c1c(cc(C)c(C(=O)N[C@H](C)C(=O)O)c1O)[C@H](O[C@@H]1O[C@H](C)[C@H](O)[C@H](O)[C@H]1O)[C@H]3O)C2=O` [dexylosylbenanomicin A]: the MIC in the data set on Candida Yu-1200 is 6.25 µg/mL (≈ 8.98 µM); in [1] it was 3.13 µg/mL (≈ 4.5 µM); in data set [2], 12.5 µg/mL (≈ 18 µM); in the data set on Candida albicans 3147, 12.5 µg/mL (≈ 18 µM); in the data set on Candida krusei F-5 it was 50 µg/mL (≈ 71.9 µM); with Pellicularia sasakii, 25 µg/mL (≈ 35.9 µM). Further, the MIC in data set [3] is 3.13 µg/mL (≈ 4.5 µM); in the data set on Aspergillus niger F-16, 50 µg/mL (≈ 71.9 µM); in data set [4], more than 25 µg/mL; with Candida tropicalis F-1 it was 12.5 µg/mL (≈ 18 µM); in data set [5], more than 25 µg/mL; in the data set on Xanthomonas citri, more than 100 µg/mL. Further, the MIC was 100 µg/mL (≈ 144 µM) in the data set with Xanthomonas oryzae, more than 25 µg/mL with Cochliobolus miyabeanus and 50 µg/mL (≈ 71.9 µM) in the data set on Pyricularia oryzae. For the same molecule, the “acute toxicity: tolerated dosage” value in [6] is recorded as 300 mg/kg. Further, the Solubility result in data set [7] (in chloroform, ethyl acetate, acetone and methanol) is recorded as “Sparingly soluble”; in [7] (in dimethyl sulfoxide and N,N-dimethylformamide), “soluble”.
